In the supplement of paper PMC7444282:

Tests used:
Vero E6 [1] = assay: cytotoxicity CC50 (uninfected Vero E6, ATP content); higher = less cytotoxic; conditions: virus: none (uninfected); 72 h
Procedure: (§1)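 Read-out is CellTiter-Glo ATP luminescence, normalised to DMSO-only wells (0% rescue) and no-virus wells (100% rescue). The cytotoxicity counter-assay used the same protocol without virus, normalised to DMSO (100% viability) and hyamine (0% viability). Confirmation used 8-point 1:3 titrations in duplicate, fitted to a four-parameter Hill equation.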

Vero E6 [2] = assay: cytotoxicity maximal efficacy (% viability loss, DMSO = 0%, hyamine = 100%); higher = more cytotoxic; conditions: virus: none (uninfected); 72 h
Procedure: as §1

Vero E6 [3] = assay: CPE rescue EC50 (SARS-CoV-2 infected Vero E6); higher = less potent antiviral; conditions: virus: SARS-CoV-2 USA_WA1/2020, MOI 0.002; 72 h
Procedure: as §1

Structure (SMILES): CN(C)c1cc2c(cc1Sc1nc3c(N)nccc3n1CCNCC(C)(C)C)OCO2
- cytotoxicity CC50 (Vero E6 [1]): 0.708 µM

Structure (SMILES): CC(C)(N)c1ccc(-c2nc3ccccc3nc2-c2ccccc2)cc1
- cytotoxicity CC50 (Vero E6 [1]): 12.6 µM
- cytotoxicity maximal efficacy (Vero E6 [2]): 34.2%

Structure (SMILES): O=S(=O)(NCC1CC1)c1ccc(Nc2nccc(N3CCCc4cc(O)ccc43)n2)cc1
- CPE rescue EC50 (Vero E6 [3]): 0.794 µM

Structure (SMILES): N#Cc1ccc(O[C@@H]2c3ccccc3C[C@H]2N2CCC[C@@H](N)C2)c(Cl)c1
- cytotoxicity CC50 (Vero E6 [1]): 12.6 µM
- cytotoxicity maximal efficacy (Vero E6 [2]): 52.9%

Structure (SMILES): Cn1c(Nc2ccc(C(F)(F)F)cc2)nc2cc(Oc3ccnc(-c4ncc(C(F)(F)F)[nH]4)c3)ccc21
- CPE rescue EC50 (Vero E6 [3]): 0.794 µM
- cytotoxicity CC50 (Vero E6 [1]): 0.316 µM

Structure (SMILES): OC1CCC(Oc2cccc3cnc(Nc4ccc5nc[nH]c5c4)nc23)CC1 (stereo unspecified)
- cytotoxicity CC50 (Vero E6 [1]): 0.891 µM
- cytotoxicity maximal efficacy (Vero E6 [2]): 50.5%

Structure (SMILES): COC[C@H]1OC(=O)/C(=C/N(C)CCCN(C)C)C2=C(O)C(=O)C3=C([C@H](OC(C)=O)C[C@]4(C)[C@@H](O)CC[C@@H]34)[C@]21C
- cytotoxicity CC50 (Vero E6 [1]): 8.91 µM
- cytotoxicity maximal efficacy (Vero E6 [2]): 62.1%

Structure (SMILES): CN(CCCNC(=O)c1ccc2nc3c(c(Cl)c2c1)CCCC3)Cc1ccccc1
- cytotoxicity CC50 (Vero E6 [1]): 12.6 µM
- cytotoxicity maximal efficacy (Vero E6 [2]): 39.1%

Structure (SMILES): CCC[C@@H](C=O)NC(=O)[C@H](CC(C)C)NC(=O)[C@H](CC(C)C)NC(=O)OCc1ccccc1
- cytotoxicity CC50 (Vero E6 [1]): 1.13 µM
- cytotoxicity maximal efficacy (Vero E6 [2]): 115%

Structure (SMILES): COCCN1CCN(Cc2ccc(-c3n[nH]c4c3C(=O)c3c(NC(=O)NN5CCOCC5)cccc3-4)cc2)CC1
- cytotoxicity CC50 (Vero E6 [1]): 0.316 µM

Structure (SMILES): C[C@@H]1O[C@@H](O[C@H]2[C@H](OC(=O)[C@]34CCC(C)(C)C[C@H]3C3=CCC5[C@@]6(C)CC[C@H](O[C@@H]7O[C@H](CO[C@@H]8OC[C@H](O)[C@H](O)[C@H]8O)[C@@H](O)[C@H](O)[C@H]7O)C(C)(C)C6CC[C@@]5(C)[C@]3(C)C[C@H]4O)OC[C@@H](O)[C@@H]2O)[C@H](O)[C@H](O[C@@H]2OC[C@](O)(CO)[C@H]2O)[C@H]1O[C@@H]1OC[C@H](O)[C@H](O[C@@H]2OC[C@@H](O)[C@H](O)[C@H]2O)[C@H]1O (stereo partly specified)
- CPE rescue EC50 (Vero E6 [3]): 0.955 µM

Structure (SMILES): C/C(=N\Nc1nnc2c(n1)[nH]c1c(C)cccc12)c1ccccn1
- cytotoxicity CC50 (Vero E6 [1]): 0.355 µM
- cytotoxicity maximal efficacy (Vero E6 [2]): 76.3%

Structure (SMILES): O=S(=O)(Cc1ccccc1)Nc1ccc(-c2ccc3c(cnn3-c3ccc(F)cc3)c2)c(C(F)(F)F)c1
- cytotoxicity CC50 (Vero E6 [1]): 14.1 µM
- cytotoxicity maximal efficacy (Vero E6 [2]): 24.3%

Structure (SMILES): NC(=O)c1ccccc1Nc1ccnc(Nc2cccc(O)c2)n1
- cytotoxicity CC50 (Vero E6 [1]): 1 µM

Structure (SMILES): C(=N\Nc1nc(Nc2ccccc2)nc(N2CCOCC2)n1)/c1c[nH]c2ccccc12
- CPE rescue EC50 (Vero E6 [3]): 0.113 µM

Structure (SMILES): CC(C)C(=O)O[C@H]1[C@@H]2[C@H](C)C(=O)O[C@@H]2C[C@@H](C)[C@@H]2C=CC(=O)[C@]21C
- cytotoxicity CC50 (Vero E6 [1]): 12.6 µM
- cytotoxicity maximal efficacy (Vero E6 [2]): 34.2%

Structure (SMILES): CN(CCc1ccc(Nc2ncc(-c3cccnc3)s2)cc1)Cc1ccccc1
- cytotoxicity CC50 (Vero E6 [1]): 12.6 µM
- cytotoxicity maximal efficacy (Vero E6 [2]): 44.4%

Structure (SMILES): COc1ccc2c(Oc3ccc(NC(=O)c4c(C)n(CC(C)(C)O)n(-c5ccccc5)c4=O)cc3F)ccnc2c1
- cytotoxicity CC50 (Vero E6 [1]): 14.1 µM
- cytotoxicity maximal efficacy (Vero E6 [2]): 70.3%

Structure (SMILES): CC1(C)CC(=O)c2c(C(F)(F)F)nn(-c3ccc(C(N)=O)c(N[C@H]4CC[C@H](OC(=O)CN)CC4)c3)c2C1
- cytotoxicity CC50 (Vero E6 [1]): 0.562 µM

Structure (SMILES): COc1ccccc1OCCNCC(O)CCOc1cccc2[nH]c3ccccc3c12 (stereo unspecified)
- cytotoxicity CC50 (Vero E6 [1]): 10 µM
- cytotoxicity maximal efficacy (Vero E6 [2]): 16.2%

Structure (SMILES): CC(=O)c1c(OCCN2CCCCC2)c(OCCC(C)c2ccc(F)cc2)c2oc(C)nc2c1C (stereo unspecified)
- cytotoxicity CC50 (Vero E6 [1]): 14.1 µM
- cytotoxicity maximal efficacy (Vero E6 [2]): 33.2%

Structure (SMILES): COc1ccc2sc(NC(c3ccc(OC(F)F)cc3)c3ccc4cccnc4c3O)nc2c1 (stereo unspecified)
- CPE rescue EC50 (Vero E6 [3]): 0.891 µM
- cytotoxicity CC50 (Vero E6 [1]): 0.708 µM

Structure (SMILES): Cn1cc(-c2ccc(-c3cncc(Cl)c3N3CCC4(CCNC4=O)CC3)cc2)cn1
- cytotoxicity CC50 (Vero E6 [1]): 0.282 µM

Structure (SMILES): O=C(O)c1ccc(CCCc2ccc(OCCc3ccc(F)cc3)cc2)o1
- CPE rescue EC50 (Vero E6 [3]): 0.141 µM

Structure (SMILES): C[C@@H]1O[C@@H](O[C@H]2[C@H](OC(=O)[C@]34CCC(C)(C)C[C@H]3C3=CCC5[C@@]6(C)CC[C@H](O[C@@H]7O[C@H](CO[C@@H]8OC[C@H](O)[C@H](O)[C@H]8O)[C@@H](O)[C@H](O)[C@H]7O)C(C)(C)C6CC[C@@]5(C)[C@]3(C)C[C@H]4O)OC[C@@H](O)[C@@H]2O)[C@H](O)[C@H](O)[C@H]1O[C@@H]1OC[C@H](O)[C@H](O[C@@H]2OC[C@@H](O)[C@H](O)[C@H]2O)[C@H]1O (stereo partly specified)
- CPE rescue EC50 (Vero E6 [3]): 0.603 µM

Structure (SMILES): CCC(C)C(=O)OC12C(OC(C)=O)C(C)C3(O)C(C=C(CO)CC4(O)C(=O)C(C)=CC43)C1C2(C)C (stereo unspecified)
- CPE rescue EC50 (Vero E6 [3]): 0.982 µM

Structure (SMILES): c1ccc2c(-c3cnn4cc(-c5ccc(OCCN6CCOCC6)cc5)cnc34)ccnc2c1
- cytotoxicity CC50 (Vero E6 [1]): 5.52 µM
- cytotoxicity maximal efficacy (Vero E6 [2]): 29.1%

Structure (SMILES): C/C=C(\C)C(=O)OC1C(C)C2(O)C3C=C(C)C(=O)C3CC(CO)=CC2C2C(C)(C)C12OC(C)=O (stereo unspecified)
- cytotoxicity CC50 (Vero E6 [1]): 0.348 µM

Structure (SMILES): COc1c(C)cnc(Cn2cnc3c(Cl)nc(N)nc32)c1C
- cytotoxicity CC50 (Vero E6 [1]): 0.355 µM

Structure (SMILES): Cn1cc(S(=O)(=O)c2ccc(Cl)cc2)c2cccc(N3CCNCC3)c21
- cytotoxicity CC50 (Vero E6 [1]): 11.2 µM
- cytotoxicity maximal efficacy (Vero E6 [2]): 48.3%

Structure (SMILES): O=c1cc(-c2cccc3c2Sc2ccccc2S3)oc(N2CCOCC2)c1
- cytotoxicity CC50 (Vero E6 [1]): 10 µM
- cytotoxicity maximal efficacy (Vero E6 [2]): 42.6%

Structure (SMILES): C[C@@H]1O[C@@H](O[C@@H]2[C@@H](O)[C@H](O[C@@H]3[C@@H](O)[C@@H](O)[C@H](O[C@H]4[C@H](OC(=O)[C@]56CCC(C)(C)C[C@H]5C5=CCC7[C@@]8(C)C[C@H](O)[C@H](O[C@@H]9O[C@@H](C)[C@H](O)[C@@H](O)[C@H]9O)[C@@](C)(CO)C8CC[C@@]7(C)[C@]5(C)C[C@H]6O)O[C@H](C)[C@H](O)[C@@H]4O)O[C@H]3C)OC[C@H]2O)[C@H](O)[C@H](O)[C@H]1O (stereo partly specified)
- CPE rescue EC50 (Vero E6 [3]): 0.851 µM

Structure (SMILES): CC(C)(C[C@@](O)(Cc1cc2ccncc2[nH]1)C(F)(F)F)c1cc(F)ccc1O
- cytotoxicity CC50 (Vero E6 [1]): 15.8 µM
- cytotoxicity maximal efficacy (Vero E6 [2]): 22.4%

Structure (SMILES): C/C(=N\NC(=O)c1cccc(S(=O)(=O)N2CCOCC2)c1)c1cc(Cl)ccc1O
- cytotoxicity CC50 (Vero E6 [1]): 1 µM

Structure (SMILES): O=C(c1ccc(-c2ccc(Cl)cc2)o1)N(Cc1ccccn1)c1ccc(N2CCNCC2)cc1
- cytotoxicity CC50 (Vero E6 [1]): 11.2 µM
- cytotoxicity maximal efficacy (Vero E6 [2]): 95.2%

Structure (SMILES): CCc1ccc(/C=C2/SC(=S)NC2=O)cc1
- cytotoxicity CC50 (Vero E6 [1]): 12.6 µM
- cytotoxicity maximal efficacy (Vero E6 [2]): 34.2%

Structure (SMILES): COc1ccc(-c2csc(NC(=O)[C@H]3CCCCN3S(=O)(=O)c3ccc(C)cc3)n2)cc1
- cytotoxicity CC50 (Vero E6 [1]): 2 µM

Structure (SMILES): OCCCNc1cc(-c2ccnc(Nc3cccc(Cl)c3)n2)ccn1
- cytotoxicity CC50 (Vero E6 [1]): 0.112 µM

Structure (SMILES): O[C@H]1[C@H]2c3cc4c(cc3CN3CCC(=C[C@@H]1O)[C@H]23)OCO4
- CPE rescue EC50 (Vero E6 [3]): 0.631 µM

Structure (SMILES): CC(C)C[C@H](NC(=O)[C@H](Cc1ccccc1)NC(=O)OCc1ccccc1)C(=O)C=O
- cytotoxicity CC50 (Vero E6 [1]): 11.2 µM
- cytotoxicity maximal efficacy (Vero E6 [2]): 33.4%

Structure (SMILES): CC(=O)OC[C@]12C[C@H](OC(=O)CC(C)C)C(C)=C[C@H]1O[C@@H]1[C@H](O)[C@@H](O)[C@@]2(C)[C@]12CO2
- cytotoxicity CC50 (Vero E6 [1]): 0.127 µM

Structure (SMILES): CO/C1=C\C(C)=C\[C@@H](C)[C@@H](O)[C@@H](C)C/C(C)=C/C=C\[C@H](OC)C([C@@H](C)[C@@H](O)[C@H](C)[C@@]2(O)C[C@@H](O)[C@H](C)C(C(C)C)O2)OC1=O (stereo partly specified)
- cytotoxicity CC50 (Vero E6 [1]): 0.101 µM

Structure (SMILES): CCOc1ccc(-c2nc(-c3cccc4c3CCC4NCCO)no2)cc1OCC (stereo unspecified)
- cytotoxicity CC50 (Vero E6 [1]): 0.631 µM

Structure (SMILES): CC(=NNC(=S)N1CCC1)c1ccccn1
- cytotoxicity CC50 (Vero E6 [1]): 0.355 µM

Structure (SMILES): COC(=O)[C@@]12OC[C@]34[C@H]([C@@H](O)[C@@H]1O)[C@@]1(C)CC(=O)C(O)=C(C)[C@@H]1C[C@H]3OC(=O)[C@H](OC(=O)/C=C(\C)C(C)C)[C@@H]24
- cytotoxicity CC50 (Vero E6 [1]): 0.142 µM

Structure (SMILES): c1ccc(-c2ccc(CNc3nc(-c4ccccn4)nnc3-c3ccccc3)cc2)cc1
- CPE rescue EC50 (Vero E6 [3]): 0.631 µM
- cytotoxicity CC50 (Vero E6 [1]): 0.562 µM

Structure (SMILES): CC(C)[C@H]1C(=O)N[C@H](CO)Cc2c[nH]c3cccc(c23)N1C
- cytotoxicity CC50 (Vero E6 [1]): 1.24 µM
- cytotoxicity maximal efficacy (Vero E6 [2]): 20.4%
